Measured values reported in patent publication US9782420B2, “Method for treating eye diseases” (Kyoto University, priority 2013, dated 2017).

Legend:
[1] = tested on: CCR2 (monocyte chemoattractant protein 1 (MCP-1) receptor) deficient mice; experiment: Experiment 1: Removal of drusen in aged mice; assay type: in vivo
Procedure: Experiment 1: Removal of Drusen in Aged Mice
The effect of the compound of number 32 (Compound 32) to remove previously formed drusen in relatively aged mice was tested. CCR2 (monocyte chemoattractant protein 1 (MCP-1) receptor) deficient mice were used. The mice in the group of Compound 32 (n=30 eyes) were orally administered with 50 mg/kg/day of Compound 32 dissolved in saline five days week from the age of nine months. The mice in the control group (n=48 eyes) were orally administered with the saline. The mice in the both groups were allowed to freely drink water. At the age of 6, 9, 10, 11, 12, 13, 14, and 15 months, the mice were examined by fundus photographs, optical coherence tomography (OCT) (Multiline OCT, Heidelberg Engineering) and electroretinogram (ERG).

[2] = tested on: CCR2 deficient mice; experiment: Experiment 2: Suppression of formation of drusen in young mice; assay type: in vivo
Procedure: Experiment 2: Suppression of Formation of Drusen in Young Mice
The effect of the compound of number 32 (Compound 32) to suppress the formation of the drusen in young mice was tested. CCR2 deficient mice were used. The mice were allowed to freely drink water containing 0.385 mg/ml of Compound 32 from the age of two months. The mice in the control group were allowed to freely drink water not containing Compound 32. At the age of 2, 3.5, 6, and 9 months, the mice were examined by fundus photographs, OCT, and ERG.

Cc1cc(F)ccc1-c1ccc(/N=N/c2cc(S(=O)(=O)[O-])c3ccccc3c2N)cn1.[Na+] [Compound 32, 4-amino-3-[6-(4-fluoro-2-methylphenyl)pyridine-3-ylazo]naphthalene-1-sulfonic acid sodium salt]
numbers of the drusen found in the fundus photographs (FIG. 5) ([1]; aged CCR2 deficient mice, oral 50 mg/kg/day from age of nine months, age 6 to 15 months, vs saline control): the drusen were gradually increased in the control group but not in the mice administered with Compound 32
drusen in fundus photographs (FIGS. 2 to 4) ([1]; aged CCR2 deficient mice, oral 50 mg/kg/day in saline five days a week from age of nine months, photographs at age 9 and 15 months): the drusen disappeared in the area bounded by the line
time-dependent change of the numbers of the drusen in individual mice (FIG. 6) ([1]; mice 1 to 4 administered with Compound 32, oral 50 mg/kg/day from age of nine months): gradually decreased after the administration
b-wave amplitudes in the electroretinogram (FIG. 7) ([1]; mice at the age of 15 months, oral 50 mg/kg/day from age of nine months, vs control, p=<0.05): retinal function is better in the mice administered with Compound 32 than in the control mice
a-wave amplitudes in the electroretinogram (FIG. 14) ([2]; mice at the age of 9 months, drinking water 0.385 mg/ml from age of two months, vs control, p=<0.001): function of photoreceptor cells is better in the mice administered with Compound 32 than in the control mice
b-wave amplitudes in the electroretinogram (FIG. 13) ([2]; mice at the age of 9 months, drinking water 0.385 mg/ml from age of two months, vs control, p=<0.05): retinal function is better in the mice administered with Compound 32 than in the control mice
number of the drusen found in the fundus photographs (FIG. 12) ([2]; young CCR2 deficient mice, drinking water 0.385 mg/ml from age of two months, age 2, 3.5, 6 and 9 months, vs control, p=<0.05): the drusen were gradually increased in the control group but not in the mice administered with Compound 32
drusen in fundus photographs (FIGS. 9 to 11) ([2]; young CCR2 deficient mice, drinking water containing 0.385 mg/ml from age of two months, photographs at age 3.5, 6, and 9 months): the drusen did not increase
